Columns and labels:
Format in all cases: toxicity, cell-based
Fibroblast = assay: Incucyte cell viability with human fibroblast; conditions: 10 µM, compound concentration 10 uM
HEK-293T = assay: Incucyte cell viability with HEK293T; conditions: human, 10 µM, compound concentration 10 uM
U2OS = assay: Incucyte cell viability with U2OS; conditions: human, 10 µM, compound concentration 10 uM
Note: unitless GR value; below 1 slowed growth and below 0 cell loss.

Row | SMILES | Growth Rate (Fibroblast; 0 h, replicate number 2) | Growth Rate (Fibroblast; 6 h, replicate number 1) | Growth Rate (Fibroblast; 12 h, replicate number 2) | Growth Rate (Fibroblast; 18 h, replicate number 1) | Growth Rate (Fibroblast; 24 h, replicate number 1) | Growth Rate (HEK-293T; 6 h, replicate number 1) | Growth Rate (HEK-293T; 12 h, replicate number 1) | Growth Rate (HEK-293T; 12 h, replicate number 2) | Growth Rate (HEK-293T; 18 h, replicate number 1) | Growth Rate (HEK-293T; 18 h, replicate number 2) | Growth Rate (HEK-293T; 24 h, replicate number 1) | Growth Rate (HEK-293T; 24 h, replicate number 2) | Growth Rate (U2OS; 0 h, replicate number 2) | Growth Rate (U2OS; 6 h, replicate number 2) | Growth Rate (U2OS; 12 h, replicate number 2) | Growth Rate (U2OS; 18 h, replicate number 2) | Growth Rate (U2OS; 24 h, replicate number 2) | Growth Rate (Fibroblast; 0 h, replicate number 1) | Growth Rate (Fibroblast; 12 h, replicate number 1) | Growth Rate (HEK-293T; 0 h, replicate number 1) | also measured
1 | CC(C)(C#Cc1ccc(NC(=O)COc2ccccc2C(=O)c2ccccc2)c(Cl)c1)C(=O)O [BI 2439] | -0.64 | 0.59 | 0.66 | 0.92 | 0.89 | 0.72 | 0.81 | 0.42 | 0.78 | 0.62 | 0.79 | 0.69 | -0.27 | 0.76 | 0.68 | 0.81 | 0.76 |  |  |  | Growth Rate (HEK-293T; 6 h, replicate number 2): 0.41; Growth Rate (U2OS; 6 h, replicate number 1): 1
2 | NC(=O)c1sc2nc(N3CCC(NC[C@H](O)c4ccccn4)CC3)cc(C(F)(F)F)c2c1N | 0.11 |  |  |  |  |  |  |  |  |  |  |  | 0.65 | -0.12 | 0.54 | 0.69 | -0.15 | 0.86 | 0.88 | -0.64 | Growth Rate (U2OS; 0 h, replicate number 1): 0.49; Growth Rate (U2OS; 12 h, replicate number 1): 0.93
3 | C=C[C@@]12CCc3cc(O)ccc3[C@H]1CC[C@@]1(C)[C@H]2CC[C@@H]1O |  | 0.24 | 0.29 | 0.92 | 0.83 |  |  |  |  |  |  |  |  | 0.96 | 0.95 | 0.93 | 0.91 | -1 | 0.86 | 0.4 | Growth Rate (Fibroblast; 6 h, replicate number 2): 0.88; Growth Rate (Fibroblast; 18 h, replicate number 2): 0.95; Growth Rate (Fibroblast; 24 h, replicate number 2): 0.71; Growth Rate (HEK-293T; 0 h, replicate number 2): -0.37; Growth Rate (U2OS; 0 h, replicate number 1): 0.1; Growth Rate (U2OS; 6 h, replicate number 1): 0.77; Growth Rate (U2OS; 12 h, replicate number 1): 0.99
4 | Nc1nccc(-c2ccn3c(N)nccc23)n1 |  | 0.9 |  | 0.49 |  |  |  |  |  |  | 0.97 |  | -0.76 |  |  |  |  | 0.88 | -0.17 | -0.56 | Growth Rate (HEK-293T; 0 h, replicate number 2): -0.48; Growth Rate (U2OS; 12 h, replicate number 1): 0.76; Growth Rate (U2OS; 18 h, replicate number 1): 0.84
5 | Cc1cc(-c2cnc(N)c3c(-c4ccc5scnc5c4)csc23)n(C)n1 |  | 0.88 | 0.67 | 0.91 |  | -0.34 | -0.15 |  | 0.02 |  | 0.06 |  | -0.85 | 0.91 | -0.33 |  |  | -1 | 0.42 |  | Growth Rate (Fibroblast; 6 h, replicate number 2): 0.31; Growth Rate (Fibroblast; 18 h, replicate number 2): 0.9; Growth Rate (Fibroblast; 24 h, replicate number 2): 0.92; Growth Rate (U2OS; 0 h, replicate number 1): -0.98; Growth Rate (U2OS; 12 h, replicate number 1): 0.94; Growth Rate (U2OS; 18 h, replicate number 1): 0.91
6 | Cn1ncc(-c2nc(N[C@H]3CC[C@H](N)CC3)ncc2Cl)c1CC1CC1 [BTX-A51] | -0.85 |  |  |  |  |  |  |  |  |  | 0.57 | 0.67 |  |  |  | 0.89 | 0.74 | -0.32 |  | -0.79 | 
7 | CCCN1C(=O)c2ccc(Cl)cc2Nc2ncccc21 |  | 0.56 | 0.55 | 0.68 | 0.63 |  |  | 0.86 |  |  |  |  |  |  | 0.68 | 0.91 |  | -1 | 0.9 |  | Growth Rate (Fibroblast; 6 h, replicate number 2): -0.63; Growth Rate (Fibroblast; 18 h, replicate number 2): 0.62; Growth Rate (U2OS; 0 h, replicate number 1): 0.38; Growth Rate (U2OS; 6 h, replicate number 1): 0.65; Growth Rate (U2OS; 24 h, replicate number 1): 0.98
8 | Cn1cc(-c2ccc(-c3cncc(Cl)c3N3CCC4(CCNC4=O)CC3)cc2)cn1 | -0.3 | 0.61 |  | 0.56 | 0.49 | 0.13 | 0.3 | 0.63 | 0.34 | 0.67 | 0.5 | 0.67 | 0.82 |  |  |  |  |  | 0.75 |  | Growth Rate (Fibroblast; 18 h, replicate number 2): 0.87; Growth Rate (Fibroblast; 24 h, replicate number 2): 0.8; Growth Rate (HEK-293T; 0 h, replicate number 2): 0.95; Growth Rate (HEK-293T; 6 h, replicate number 2): 0.24; Growth Rate (U2OS; 6 h, replicate number 1): 0.58; Growth Rate (U2OS; 12 h, replicate number 1): 0.59; Growth Rate (U2OS; 18 h, replicate number 1): 0.96
9 | Cc1cc(S(=O)(=O)N2CC(C)(C)c3cc(-c4ccc(C(F)(F)F)cc4)ccc32)ccc1OCC(=O)O | -0.87 | 0.92 |  |  |  | 0.72 | 0.7 | 0.81 | 0.71 | 0.95 | 0.79 |  | -0.69 | 0.68 | 0.54 | 0.8 | 0.98 | -0.12 |  | 0.52 | Growth Rate (HEK-293T; 0 h, replicate number 2): -0.17; Growth Rate (HEK-293T; 6 h, replicate number 2): 0.73; Growth Rate (U2OS; 6 h, replicate number 1): 0.69
10 | COc1ccc(-c2cc3c(C)nc(N)nc3n([C@H]3CC[C@H](OCCO)CC3)c2=O)cn1 [PF-04691502] |  | 0.8 | -0.28 | -0.18 | -0.23 | -0.19 | -0.29 | -0.6 | -0.17 | -0.38 | -0.14 | -0.25 |  |  |  | 0.83 | 0.62 | -1 | 0.03 |  | Growth Rate (Fibroblast; 6 h, replicate number 2): 0.33; Growth Rate (Fibroblast; 18 h, replicate number 2): -0.29; Growth Rate (Fibroblast; 24 h, replicate number 2): -0.32; Growth Rate (HEK-293T; 6 h, replicate number 2): -0.8; Growth Rate (U2OS; 0 h, replicate number 1): -0.97; Growth Rate (U2OS; 18 h, replicate number 1): 0.65; Growth Rate (U2OS; 24 h, replicate number 1): 0.6
11 | Cc1ccc(-c2c(C(=O)CF)n(CCCO)c3ncnc(N)c23)cc1 |  |  | -0.21 | 0.29 | 0.33 | -0.57 | 0.54 | 0.68 | 0.96 | 0.85 |  | 0.87 | -0.79 | 0.44 |  | 0.96 | 0.98 |  |  |  | Growth Rate (Fibroblast; 6 h, replicate number 2): -1; Growth Rate (Fibroblast; 18 h, replicate number 2): 0.3; Growth Rate (Fibroblast; 24 h, replicate number 2): 0.41; Growth Rate (HEK-293T; 6 h, replicate number 2): 0.16; Growth Rate (U2OS; 0 h, replicate number 1): 0.43; Growth Rate (U2OS; 12 h, replicate number 1): 0.92
12 | CC(F)(F)CN1C(=O)c2[nH]nc(-c3cccc4[nH]c(=O)oc34)c2C1c1ccc(Oc2cc(C(F)(F)F)cc(C(F)(F)F)c2)cc1 (stereo not drawn) | -0.97 | 0.84 |  | 0.98 | 0.96 |  |  | 0.76 | 0.83 | 0.68 | 0.78 | 0.75 |  |  |  |  |  |  |  | 0.14 | Growth Rate (HEK-293T; 0 h, replicate number 2): -0.56; Growth Rate (U2OS; 24 h, replicate number 1): 0.88
